Test results reported in patent publication US20240368194A1, “IRAK4 DEGRADATION AGENT, AND PREPARATION METHOD THEREFOR AND USE THEREOF” (SHANGHAI LEADINGTAC PHARMACEUTICAL CO. LTD., priority 2021, published 2024).

Columns and labels:
IRAK4 kinase = IRAK4 kinase (Homo sapiens (Human), UniProt Q9NWZ3); experiment: IRAK4 kinase activity test (KinEASE-STK S1 HTRF kit); format: biochemical; conditions: 2.5 nM IRAK4 kinase, 7 μM ATP, 37° C. 120 min
Procedure: Then 2.5 nM 1RAK4 kinase (Carna), 1 μM biotinylated polypeptide substrate (Cisbio) and 7 μM adenosine triphosphate (Sigma-Aldrich) were sequentially added, and the mixtures were incubated at 37° C. for 120 min. Subsequently, an anti-phosphoserine/threonine antibody (Cisbio) conjugated with a europium element compound and conjugated modified XL665 streptavidin (Cisbio) were added to the reaction systems to stop the reactions. After 1 h of incubation at room temperature, the fluorescence intensity of each well was measured at the excitation wavelength of 337 nm and the emission wavelengths of 620 nm and 665 nm with a microplate reader EnVision (PerkinElmer) in the HTRF mode, and Ratio values were calculated using the formula Ratio=(665 nm/620 nm)×[…]. The inhibition rate of the compound at each concentration was calculated by comparing the fluorescence intensity ratio with that of the control group. Then a non-linear curve fitting of logarithmic concentration-inhibition rate was performed using GraphPad Prism 7, and the IC50 value of the compound was obtained.

[1] = molecular target: IRAK4 protein in THP-1 cells (Homo sapiens (Human), UniProt Q9NWZ3); experiment: Degradation of IRAK4 in THP-1 cells, human IRAK4 AlphaLISA assay; format: cell-based; conditions: 24 h incubation
Chain of IRAK4 protein in THP-1 cells (Q9NWZ3 whole entry): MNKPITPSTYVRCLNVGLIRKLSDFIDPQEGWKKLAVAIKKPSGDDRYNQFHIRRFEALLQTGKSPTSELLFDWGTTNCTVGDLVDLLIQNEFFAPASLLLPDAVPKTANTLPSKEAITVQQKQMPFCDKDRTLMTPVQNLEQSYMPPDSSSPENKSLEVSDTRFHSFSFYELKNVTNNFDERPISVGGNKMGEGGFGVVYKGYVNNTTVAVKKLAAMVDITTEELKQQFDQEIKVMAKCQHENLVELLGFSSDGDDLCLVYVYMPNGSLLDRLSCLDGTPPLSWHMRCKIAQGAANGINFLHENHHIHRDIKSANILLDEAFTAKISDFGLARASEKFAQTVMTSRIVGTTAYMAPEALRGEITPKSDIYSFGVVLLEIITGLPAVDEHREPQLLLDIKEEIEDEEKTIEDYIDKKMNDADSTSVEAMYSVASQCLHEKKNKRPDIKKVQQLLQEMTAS
How it was run: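 THP-1 cells, after overnight plating, exposed 24 h at 37 °C to compound at 0.03-3000 nM final. Lysate IRAK4 read by Western blot and by AlphaLISA (acceptor beads 10 μg/mL, biotin anti-IRAK4 1 nM, donor beads 40 μg/mL, 23 °C). DC50 and Dmax from log concentration-response fit.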

Chain of IRAK4 kinase (Q9NWZ3 whole entry): as above

SMILES | IC50 (IRAK4 kinase) [nM] | DC50 [1] [nM] | Dmax [1] [%] | Dmax (%) [1] [%]
COc1ccc(C(=O)N2CCC3(CCN(CCCCN4CCC(n5cc(NC(=O)c6cnn7ccc(N8CCOCC8)nc67)c(C(F)F)n5)CC4)CC3)CC2)cc1N1CCC(=O)NC1=O [Example 61, N-(3-(difluoromethyl)-1-(1-(4-(9-(3-(2,4-dioxotetrahydropyrimidin-1(2H)-yl)-4-methoxybenzoyl)-3,9-diazaspiro[5.5]undecan-3-yl)butyl)piperidin-4-yl)-1H-pyrazol-4-yl)-5-morpholinopyrazolo[1,5-a]pyrimidine-3-carboxamide] | 9.06 | 29 | 87.9 | –
O=C1CCN(c2cc(C(=O)N3CCC(OCCCN4CCC(n5cc(NC(=O)c6cnn7ccc(N8C[C@H]9C[C@@H]8CO9)nc67)c(C(F)F)n5)CC4)CC3)ccc2Cl)C(=O)N1 [Example 23, 5-((1R,4R)-2-oxa-5-azabicyclo[2.2.1]heptan-5-yl)-N-(1-(1-(3-((1-(4-chloro-3-(2,4-dioxotetrahydropyrimidin-1(2H)-yl)benzoyl)piperidin-4-yl)oxy)propyl)piperidin-4-yl)-3-(difluoromethyl)-1H-pyrazol-4-yl)pyrazolo[1,5-a]pyrimidine-3-carboxamide] | 23 | 10.1 | 93.7 | –
O=C1CCN(c2cc(C(=O)N3CCC4(CCC(CCN5CCC(n6cc(NC(=O)c7cnn8ccc(N9C[C@H]%10C[C@@H]9CO%10)nc78)c(C(F)F)n6)CC5)CC4)CC3)ccc2Cl)C(=O)N1 [Example 43, 5-((1R,4R)-2-oxa-5-azabicyclo[2.2.1]heptan-5-yl)-N-(1-(1-(2-(3-(4-chloro-3-(2,4-dioxotetrahydropyrimidin-1(2H)-yl)benzoyl)-3-azaspiro[5.5]undecan-9-yl)ethyl)piperidin-4-yl)-3-(difluoromethyl)-1H-pyrazol-4-yl)pyrazolo[1,5-a]pyrimidine-3-carboxamide] | 45 | 15.1 | 79.5 | –
O=C1CCN(c2cc(C(=O)N3CCC4(CCC(CN5CCC(n6cc(NC(=O)c7cnn8ccc(N9CCOCC9)nc78)c(C(F)F)n6)CC5)CC4)CC3)ccc2F)C(=O)N1 [Example 24, N-(3-(difluoromethyl)-1-(1-((3-(3-(2,4-dioxotetrahydropyrimidin-1(2H)-yl)-4-fluorobenzoyl)-3-azaspiro[5.5]undecan-9-yl)methyl)piperidin-4-yl)-1H-pyrazol-4-yl)-5-morpholinopyrazolo[1,5-a]pyrimidine-3-carboxamide] | 6.08 | 6.16 | 96.3 | –
O=C1CCN(c2cc(C(=O)N3CCC4(CCC(CN5CCC(n6cc(NC(=O)c7cnn8ccc(N9CCOCC9)nc78)c(C(F)F)n6)CC5)CC4)CC3)ccc2C(F)(F)F)C(=O)N1 [Example 25, N-(3-(difluoromethyl)-1-(1-((3-(3-(2,4-dioxotetrahydropyrimidin-1(2H)-yl)-4-(trifluoromethyl)benzoyl)-3-azaspiro[5.5]undecan-9-yl)methyl)piperidin-4-yl)-1H-pyrazol-4-yl)-5-morpholinopyrazolo[1,5-a]pyrimidine-3-carboxamide] | 14.1 | 62.1 | 97.8 | –
O=C1CCN(c2cc(C(=O)N3CCC(COCCN4CCC(n5cc(NC(=O)c6cnn7ccc(N8C[C@H]9C[C@@H]8CO9)nc67)c(C(F)F)n5)CC4)CC3)ccc2Cl)C(=O)N1 [Example 18, 5-((1R,4R)-2-oxa-5-azabicyclo[2.2.1]heptan-5-yl)-N-(1-(1-(2-((1-(4-chloro-3-(2,4-dioxotetrahydropyrimidin-1(2H)-yl)benzoyl)piperidin-4-yl)methoxy)ethyl)piperidin-4-yl)-3-(difluoromethyl)-1H-pyrazol-4-yl)pyrazolo[1,5-a]pyrimidine-3-carboxamide] | 66.9 | 54.3 | 62.5 | –
O=C1CCN(c2cc(C(=O)N3CCC(CCCCN4CCC(n5cc(NC(=O)c6cnn7ccc(N8C[C@H]9C[C@@H]8CO9)nc67)c(C(F)F)n5)CC4)CC3)ccc2Cl)C(=O)N1 [Example 21, 5-((1R,4R)-2-oxa-5-azabicyclo[2.2.1]heptan-5-yl)-N-(1-(1-(4-(1-(4-chloro-3-(2,4-dioxotetrahydropyrimidin-1(2H)-yl)benzoyl)piperidin-4-yl)butyl)piperidin-4-yl)-3-(difluoromethyl)-1H-pyrazol-4-yl)pyrazolo[1,5-a]pyrimidine-3-carboxamide] | 9.9 | 9.6 | 95.5 | –
Cc1ccc(C(=O)N2CCC3(CCC(CN4CCC(n5cc(NC(=O)c6cnn7ccc(N8CCS(=O)(=O)CC8)nc67)c(C(F)F)n5)CC4)CC3)CC2)cc1N1CCC(=O)NC1=O [Example 55, N-(3-(difluoromethyl)-1-(1-((3-(3-(2,4-dioxotetrahydropyrimidin-1(2H)-yl)-4-methylbenzoyl)-3-azaspiro[5.5]undecan-9-yl)methyl)piperidin-4-yl)-1H-pyrazol-4-yl)-5-(1,1-dioxothiomorpholinyl)pyrazolo[1,5-a]pyrimidine-3-carboxamide] | 21.3 | 7.52 | 79.2 | –
O=C1CCN(c2cc(C(=O)N3CCC4(CCC(CN5CCC(n6cc(NC(=O)c7cnn8ccc(N9CCNCC9)nc78)c(C(F)F)n6)CC5)CC4)CC3)ccc2Cl)C(=O)N1 [Example 19, N-(1-(1-((3-(4-chloro-3-(2,4-dioxotetrahydropyrimidin-1(2H)-yl)benzoyl)-3-azaspiro[5.5]undecan-9-yl)methyl)piperidin-4-yl)-3-(difluoromethyl)-1H-pyrazol-4-yl)-5-(piperazin-1-yl)pyrazolo[1,5-a]pyrimidine-3-carboxamide] | 3.8 | 5.1 | 97.7 | –
Cc1ccc(C(=O)N2CCC3(CCC(CN4CCC(n5cc(NC(=O)c6cnn7ccc(N8CCOCC8)nc67)c(C(F)F)n5)CC4)CC3)CC2)cc1N1CCC(=O)NC1=O [Example 34, N-(3-(difluoromethyl)-1-(1-((3-(3-(2,4-dioxotetrahydropyrimidin-1(2H)-yl)-4-methylbenzoyl)-3-azaspiro[5.5]undecan-9-yl)methyl)piperidin-4-yl)-1H-pyrazol-4-yl)-5-morpholinopyrazolo[1,5-a]pyrimidine-3-carboxamide] | 11 | 3.55 | 87.1 | –
COc1ccc(C(=O)N2CCC3(CCC(CN4CCC(n5cc(NC(=O)c6cnn7ccc(N8CC9CCC(C8)O9)nc67)c(C(F)F)n5)CC4)CC3)CC2)cc1N1CCC(=O)NC1=O [Example 16, 5-(8-oxa-3-azabicyclo[3.2.1]octan-3-yl)-N-(3-(difluoromethyl)-1-(1-((3-(3-(2,4-dioxotetrahydropyrimidin-1(2H)-yl)-4-methoxybenzoyl)-3-azaspiro[5.5]undecan-9-yl)methyl)piperidin-4-yl)-1H-pyrazol-4-yl)pyrazolo[1,5-a]pyrimidine-3-carboxamide] | 8.8 | 6.4 | 87.9 | –
O=C1CCN(c2cc(C(=O)N3CCC(CCOC[C@H]4CC[C@@H](n5cc(NC(=O)c6cnn7ccc(N8C[C@H]9C[C@@H]8CO9)nc67)c(C(F)F)n5)CC4)CC3)ccc2Cl)C(=O)N1 [Example 9, 5-((1R,4R)-2-oxa-5-azabicyclo[2.2.1]heptan-5-yl)-N-(1-((1R,4R)-4-((2-(1-(4-chloro-3-(2,4-dioxotetrahydropyrimidin-1(2H)-yl)benzoyl)piperidin-4-yl)ethoxy)methyl)cyclohexyl)-3-(difluoromethyl)-1H-pyrazol-4-yl)pyrazolo[1,5-a]pyrimidine-3-carboxamide] | 131 | 129 | – | 81.0
Cc1ccc(C(=O)N2CCC3(CCC(CN4CCC(n5cc(NC(=O)c6cnn7ccc(N8CCC[C@H](O)C8)nc67)c(C(F)F)n5)CC4)CC3)CC2)cc1N1CCC(=O)NC1=O [Example 56, (S)-N-(3-(difluoromethyl)-1-(1-((3-(3-(2,4-dioxotetrahydropyrimidin-1(2H)-yl)-4-methylbenzoyl)-3-azaspiro[5.5]undecan-9-yl)methyl)piperidin-4-yl)-1H-pyrazol-4-yl)-5-(3-hydroxypiperidin-1-yl)pyrazolo[1,5-a]pyrimidine-3-carboxamide] | 3.87 | 0.41 | 96.4 | –
